PubChem BioAssay AID330 (DTP/NCI, 2004)
Several values for one entry are separate records, joined by “and”; a condition that tells them apart may be missing. Equal entries are not always repeated. Toxic doses and inconclusive results are not listed. The calls were made as follows: active = survival T/C of 150% or more; inactive = T/C below 125% in these data.

Test system: P388 leukemia ip, CD2F1 mice, survival T/C
Experiment: NCI In Vivo Anticancer Drug Screen. Data for tumor model P388 Leukemia (intraperitoneal) in CD2F1 (CDF1) mice
Conditions: endpoint: median survival time, higher = longer survival
Method in brief: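 Mice carrying the transplanted tumor received test compound or vehicle. Survival was recorded in each group, and the value is the treated-group measurement divided by that of the vehicle-treated control group.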

[1] = dose: 12.5 mg/kg/injection, schedule: Q01DX009 (ip), vehicle: Klucel (hydroxypropylcellulose) (HPC)
[2] = dose: 25.0 mg/kg/injection, schedule: Q01DX009 (ip), vehicle: Klucel (hydroxypropylcellulose) (HPC)
[3] = dose: 50.0 mg/kg/injection, schedule: Q01DX009 (ip), vehicle: Klucel (hydroxypropylcellulose) (HPC)
[4] = dose: 100.0 mg/kg/injection, schedule: Q01DX009 (ip), vehicle: Klucel (hydroxypropylcellulose) (HPC)
[5] = dose: 50.0 mg/kg/injection, schedule: Q01DX009 (ip), vehicle: saline
[6] = dose: 100.0 mg/kg/injection, schedule: Q01DX009 (ip), vehicle: saline
[7] = dose: 50.0 mg/kg/injection, schedule: Q01DX009 (ip), vehicle: saline with Tween-80
[8] = dose: 100.0 mg/kg/injection, schedule: Q01DX009 (ip), vehicle: saline with Tween-80
[9] = dose: 200.0 mg/kg/injection, schedule: Q01DX009 (ip), vehicle: saline with Tween-80
[10] = dose: 200.0 mg/kg/injection, schedule: Q01DX009 (ip), vehicle: Klucel (hydroxypropylcellulose) (HPC)
[11] = dose: 50.0 mg/kg/injection, schedule: Q01DX005 (ip), vehicle: saline with Tween-80
[12] = dose: 100.0 mg/kg/injection, schedule: Q01DX005 (ip), vehicle: saline with Tween-80
[13] = dose: 200.0 mg/kg/injection, schedule: Q01DX005 (ip), vehicle: saline with Tween-80
[14] = dose: 100.0 mg/kg/injection, schedule: Q04DX002 (ip), vehicle: Klucel (hydroxypropylcellulose) (HPC)
[15] = dose: 200.0 mg/kg/injection, schedule: Q04DX002 (ip), vehicle: Klucel (hydroxypropylcellulose) (HPC)
[16] = dose: 400.0 mg/kg/injection, schedule: Q04DX002 (ip), vehicle: Klucel (hydroxypropylcellulose) (HPC)

Measured: T/C

C1CC[N-]CC1.C1CC[N-]CC1.N#C[S-].N#C[S-].[Cu]
inactive: dose: 1.25 mg/kg/injection, schedule: Q04DX003 (ip), vehicle: saline with Tween-80 100 % of control | dose: 2.5 mg/kg/injection, schedule: Q04DX003 (ip), vehicle: saline with Tween-80 100 % of control | dose: 5.0 mg/kg/injection, schedule: Q04DX003 (ip), vehicle: saline with Tween-80 90 % of control | dose: 10.0 mg/kg/injection, schedule: Q04DX003 (ip), vehicle: saline with Tween-80 90 % of control

N=c1nc(N)nc2c3ccccc3nnn12
inactive: dose: 15.0 mg/kg/injection, schedule: Q01DX005 (ip), vehicle: saline with Tween-80 109 % of control | dose: 30.0 mg/kg/injection, schedule: Q01DX005 (ip), vehicle: saline with Tween-80 109 % of control | dose: 60.0 mg/kg/injection, schedule: Q01DX005 (ip), vehicle: saline with Tween-80 106 % of control and 109 % of control

C/C(=N\Nc1ccccc1)C1CC2C=C(C#N)C1N(Cc1ccccc1)C2 (centres undefined)
inactive: dose: 8.75 mg/kg/injection, schedule: Q01DX005 (ip), vehicle: Klucel (hydroxypropylcellulose) (HPC) 94 % of control | dose: 17.5 mg/kg/injection, schedule: Q01DX005 (ip), vehicle: Klucel (hydroxypropylcellulose) (HPC) 96 % of control | dose: 35.0 mg/kg/injection, schedule: Q01DX005 (ip), vehicle: Klucel (hydroxypropylcellulose) (HPC) 94 % of control

S=C(Nc1ccc(Cl)c(Cl)c1)SCc1ccc2c(c1)OCO2
inactive: [1] 116 % of control | [2] 120 % of control | [3] 121 % of control | [4] 112 % of control and 97 % of control

CCN(Cc1c(C)[nH]c2ccc(N(C)C)cc2c1=O)Cc1c(C)[nH]c2ccc(N(C)C)cc2c1=O
inactive: [5] 101 % of control | [6] 101 % of control | dose: 200.0 mg/kg/injection, schedule: Q01DX009 (ip), vehicle: saline 106 % of control

O=C(Nc1ccc(Nc2ccncc2)cc1)c1ccc(N2C(=O)c3ccccc3C2=O)cc1[N+](=O)[O-]
inactive: [7] 98 % of control | [8] 95 % of control | [9] 95 % of control

CCOC(=O)NCP(Cl)(CNC(=O)OCC)(CNC(=O)OCC)CNC(=O)OCC
inactive: [5] 99 % of control | [6] 86 % of control

O=[N+]([O-])c1cnc(Oc2ccccc2[N+](=O)[O-])nc1
inactive: dose: 6.25 mg/kg/injection, schedule: Q01DX009 (ip), vehicle: Klucel (hydroxypropylcellulose) (HPC) 107 % of control | [1] 98 % of control | [2] 98 % of control | [4] 86 % of control

CCCCN1C(=O)C(=O)N(Cc2ccco2)C1=O
inactive: [3] 98 % of control | [4] 104 % of control | [10] 106 % of control

NC(C(=O)O)C(CC(=O)O)c1ccccc1 (centres undefined)
inactive: [7] 88 % of control | dose: 50.0 mg/kg/injection, schedule: Q01DX009 (ip), vehicle: suspension in saline 96 % of control | [8] 94 % of control | dose: 100.0 mg/kg/injection, schedule: Q01DX009 (ip), vehicle: suspension in saline 89 % of control | dose: 100.0 mg/kg/injection, schedule: Q04DX003 (ip), vehicle: saline with Tween-80 100 % of control | [9] 95 % of control | dose: 200.0 mg/kg/injection, schedule: Q01DX009 (ip), vehicle: suspension in saline 88 % of control | dose: 200.0 mg/kg/injection, schedule: Q04DX003 (ip), vehicle: saline with Tween-80 108 % of control | dose: 400.0 mg/kg/injection, schedule: Q04DX003 (ip), vehicle: saline with Tween-80 97 % of control

COP(=O)(CCC1OCCO1)OC
inactive: [11] 104 % of control | [12] 104 % of control | [13] 99 % of control

COC(=O)CCCC#C/C=C/CCCC/C=C(Br)\C=C/Br
inactive: dose: 62.5 mg/kg/injection, schedule: Q01DX009 (ip), vehicle: olive oil, sesame oil, peanut oil 101 % of control | dose: 125.0 mg/kg/injection, schedule: Q01DX009 (ip), vehicle: olive oil, sesame oil, peanut oil 96 % of control | dose: 250.0 mg/kg/injection, schedule: Q01DX009 (ip), vehicle: olive oil, sesame oil, peanut oil 98 % of control

CCOC(=O)c1cc(CC)sc1N
inactive: [8] 90 % of control | [9] 90 % of control

CCn1c(=O)c2[nH]c(Cl)nc2n(CCCOC)c1=O
inactive: [14] 101 % of control | [15] 95 % of control | [16] 87 % of control

CC(=O)C(O)N1C(=O)C=CC1=O (centres undefined)
inactive: dose: 2.5 mg/kg/injection, schedule: Q01DX009 (ip), vehicle: saline with Tween-80 86 % of control | dose: 2.5 mg/kg/injection, schedule: Q04DX003 (ip), vehicle: saline 100 % of control | dose: 5.0 mg/kg/injection, schedule: Q04DX003 (ip), vehicle: saline 95 % of control | dose: 10.0 mg/kg/injection, schedule: Q04DX003 (ip), vehicle: saline 100 % of control

CC1(C)CCC[C@](C)(O)C2CCC=CC21 (some centres undefined)
inactive: [14] 106 % of control | [15] 104 % of control | [16] 114 % of control

CNC(=S)N/N=C/CCCC/C=N/NC(=S)NC
inactive: dose: 100.0 mg/kg/injection, schedule: Q01DX001 (ip), vehicle: saline 96 % of control | dose: 200.0 mg/kg/injection, schedule: Q01DX001 (ip), vehicle: saline 96 % of control | dose: 400.0 mg/kg/injection, schedule: Q01DX001 (ip), vehicle: saline 101 % of control

COc1cc(C)c(/C(=N/O)n2nnc(-c3ccc(C)cc3)n2)c(C)c1
inactive: dose: 100.0 mg/kg/injection, schedule: Q01DX001 (ip), vehicle: saline with Tween-80 92 % of control | dose: 200.0 mg/kg/injection, schedule: Q01DX001 (ip), vehicle: saline with Tween-80 91 % of control

COc1cc(C)ccc1C1OC(=O)c2c1ccc(OC)c2OC (centres undefined)
inactive: dose: 25.0 mg/kg/injection, schedule: Q01DX009 (ip), vehicle: saline with Tween-80 106 % of control | [7] 101 % of control | [8] 97 % of control | [9] 108 % of control

CCC1OC(O)C=CC1=O (centres undefined)
inactive: dose: 1.5 mg/kg/injection, schedule: Q01DX005 (ip), vehicle: saline 99 % of control | dose: 3.0 mg/kg/injection, schedule: Q01DX005 (ip), vehicle: saline 93 % of control

CCN(CC)CCN(C(=O)OCCOC(=O)N(CCN(CC)CC)c1cccc2sc3ccccc3c(=O)c12)c1cccc2sc3ccccc3c(=O)c12
inactive: [11] 99 % of control | [12] 106 % of control | [13] 105 % of control

COc1cc(CC2C(=O)OCC2C2(c3ccc4c(c3)OCO4)SCCCS2)cc(OC)c1OC (centres undefined)
inactive: [3] 105 % of control | [4] 91 % of control | [10] 93 % of control

CC(C)=NOCCC#N
inactive: dose: 60.0 mg/kg/injection, schedule: Q01DX005 (ip), vehicle: saline 99 % of control | dose: 120.0 mg/kg/injection, schedule: Q01DX005 (ip), vehicle: saline 99 % of control | dose: 240.0 mg/kg/injection, schedule: Q01DX005 (ip), vehicle: saline 101 % of control

CC(OCc1ccccc1)C(NC(=O)OC(C)(C)C)C(=O)ON1C(=O)CCC1=O (centres undefined)
inactive: dose: 50.0 mg/kg/injection, schedule: Q01DX005 (ip), vehicle: Klucel (hydroxypropylcellulose) (HPC) 109 % of control | dose: 100.0 mg/kg/injection, schedule: Q01DX005 (ip), vehicle: Klucel (hydroxypropylcellulose) (HPC) 105 % of control | dose: 200.0 mg/kg/injection, schedule: Q01DX005 (ip), vehicle: Klucel (hydroxypropylcellulose) (HPC) 96 % of control
